Results from patent US12281149B2, “Modulators of G-protein coupled receptors” (priority 2021, dated 2025).
*1 amine or outer side, *2 acyl side, *3 side chain or, on linkers, in order; H or OH if unused. Where a SMILES comes first, the peptide text is derived from it. Side-chain parts run from the residue outwards. [ ]: non-standard residue; d: D form. The star is where a group is joined. Isobutyryl(2-(3-CN-5-F-Ph)) = CC(C)(C(=O)*)c1cc(F)cc(C#N)c1; C20 diacid = O=C(O)CCCCCCCCCCCCCCCCCCC(=O)*; βPro(3S) = O=C([C@H]1CCN([*:1])C1)[*:2]; γGlu = O=C(O)[C@H](CCC(=O)[*:2])N[*:1]; X57 = CO[C@@H](CN[*:1])C(=O)[*:2]; X61 = CC(C)(C(=O)*)c1ccccc1F; AEEA = NCCOCCOCC(=O)O; Aib = CC(C)(N)C(=O)O; Piv = CC(C)(C)C(=O)*; βAla = NCCC(=O)O

Columns and labels:
Assay type in all cases: cell-based
GIP receptor [1] = molecular target: T1, GIP receptor (Homo sapiens, UniProt P48546); assay: HitHunter cAMP assay, GIP receptor; conditions: for EC50: CHO cells stably expressing GIP receptor, cAMP accumulation, 30 min, read-out: EC50 GIP-1R; for Emax: CHO cells, cAMP, normalized to maximum signal from GIP (high) and DMSO (low), read-out: Emax GIP-1R
T1 sequence (P48546 22-466): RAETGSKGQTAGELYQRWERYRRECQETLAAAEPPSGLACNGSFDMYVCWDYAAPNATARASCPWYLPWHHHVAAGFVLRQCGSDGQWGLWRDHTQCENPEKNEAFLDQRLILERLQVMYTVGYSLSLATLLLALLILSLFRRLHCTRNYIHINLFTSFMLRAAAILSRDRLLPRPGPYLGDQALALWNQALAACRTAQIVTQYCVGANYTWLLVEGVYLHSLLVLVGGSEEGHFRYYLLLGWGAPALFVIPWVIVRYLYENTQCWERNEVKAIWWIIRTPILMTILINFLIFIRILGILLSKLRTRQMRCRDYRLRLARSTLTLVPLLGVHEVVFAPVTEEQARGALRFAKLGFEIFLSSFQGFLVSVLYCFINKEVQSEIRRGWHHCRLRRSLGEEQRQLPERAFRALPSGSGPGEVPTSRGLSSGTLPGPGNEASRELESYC

GIP receptor [2] = molecular target: T1, GIP receptor; assay: PathHunter β-arrestin assay, GIP receptor; parameters: host or cells: PathHunter CHO-K1 GIPR β-Arrestin Cell Line; conditions: β-arrestin-2 recruitment, PathHunter CHO-K1 GIPR β-Arrestin Cell Line, 90 min at 37° C.; normalized to GIP; read-out: GIPR β Arrestin EC50
GLP-1 receptor [3] = molecular target: T2, GLP-1 receptor (Homo sapiens, UniProt P43220); assay: HitHunter cAMP assay, GLP-1 receptor; conditions: for EC50: CHO cells stably expressing human GLP-1 receptor, cAMP accumulation, 30 min, read-out: EC50 GLP-1R; for Emax: CHO cells, cAMP, normalized to maximum signal from GLP-1 (high) and DMSO (low), read-out: Emax GLP-1R
T2 sequence (P43220 24-463): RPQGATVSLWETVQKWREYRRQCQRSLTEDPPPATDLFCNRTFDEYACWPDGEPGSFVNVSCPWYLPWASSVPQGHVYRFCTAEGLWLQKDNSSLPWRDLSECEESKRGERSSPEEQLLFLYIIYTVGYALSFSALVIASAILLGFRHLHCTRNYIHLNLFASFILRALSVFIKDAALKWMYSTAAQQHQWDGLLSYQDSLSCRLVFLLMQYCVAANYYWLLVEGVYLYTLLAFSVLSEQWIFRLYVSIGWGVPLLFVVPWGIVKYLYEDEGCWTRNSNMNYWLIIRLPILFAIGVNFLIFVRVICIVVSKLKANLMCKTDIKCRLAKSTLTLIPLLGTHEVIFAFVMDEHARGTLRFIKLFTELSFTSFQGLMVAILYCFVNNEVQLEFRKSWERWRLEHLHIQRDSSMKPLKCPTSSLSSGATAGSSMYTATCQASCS

GLP-1 receptor [4] = molecular target: T2, GLP-1 receptor; assay: PathHunter β-arrestin assay, GLP-1 receptor; parameters: host or cells: PathHunter CHO-K1 GLP1R β-Arrestin Cell Line; conditions: β-arrestin-2 recruitment, PathHunter CHO-K1 GLP1R β-Arrestin Cell Line, 90 min at 37° C.; normalized to GLP-1; read-out: GLP-1R β Arrestin EC50

| SMILES | EC50 (GIP receptor [1]) | Emax (GIP receptor [1]) | EC50 (GIP receptor [2]) | EC50 (GLP-1 receptor [3]) | Emax (GLP-1 receptor [3]) | EC50 (GLP-1 receptor [4]) |
| --- | --- | --- | --- | --- | --- | --- |
| CC[C@H](C)[C@H](NC(=O)[C@H](CC(C)C)NC(=O)[C@H](Cc1c[nH]c2ccccc12)NC(=O)[C@H](CCC(N)=O)NC(=O)[C@@H](NC(=O)[C@H](Cc1ccccc1)NC(=O)[C@H](C)NC(=O)[C@H](CCCCNC(=O)COCCOCCNC(=O)COCCOCCNC(=O)CC[C@H](NC(=O)CCCCCCCCCCCCCCCCCCC(=O)O)C(=O)O)NC(=O)[C@H](CCC(N)=O)NC(=O)[C@H](C)NC(=O)[C@@H](NC(=O)[C@H](CCCCN)NC(=O)[C@H](CC(=O)O)NC(=O)[C@H](CC(C)C)NC(=O)C(C)(C)NC(=O)[C@@H](NC(=O)[C@H](CO)NC(=O)[C@H](Cc1ccc(O)cc1)NC(=O)[C@H](CC(=O)O)NC(=O)[C@H](CO)NC(=O)[C@@H](NC(=O)[C@H](Cc1ccccc1)NC(=O)[C@@H](NC(=O)CNC(=O)[C@H](CCC(=O)O)NC(=O)[C@H](CNC(=O)C(C)(C)c1cc(F)cc(C#N)c1)OC)[C@@H](C)O)[C@@H](C)O)[C@@H](C)CC)[C@@H](C)CC)C(C)C)C(=O)N[C@@H](C)C(=O)NCC(=O)NCC(=O)N1CCC[C@H]1C(=O)N[C@@H](CO)C(=O)N[C@@H](CO)C(=O)NCC(=O)N[C@@H](C)C(=O)N1CCC[C@H]1C(=O)N1CCC[C@H]1C(=O)N1CCC[C@H]1C(=O)N[C@@H](CO)C(N)=O [Compound 194] ({Isobutyryl(2-(3-CN-5-F-Ph))}-[X57]EGTFTSDYSI[Aib]LDKIAQK([AEEA-AEEA-γGlu-C20 diacid])AFVQWLIAGGPSSGAPPPS-NH2) | 10 to 100 nM | 78% | > 1000 nM | 10 to 100 nM | 80% | > 1000 nM |
| CC[C@H](C)[C@H](NC(=O)[C@H](CC(C)C)NC(=O)[C@H](Cc1c[nH]c2ccccc12)NC(=O)[C@H](CCC(N)=O)NC(=O)[C@@H](NC(=O)[C@H](Cc1ccccc1)NC(=O)[C@H](C)NC(=O)[C@H](CCCCNC(=O)COCCOCCNC(=O)COCCOCCNC(=O)CC[C@H](NC(=O)CCCCCCCCCCCCCCCCCCC(=O)O)C(=O)O)NC(=O)[C@H](CCC(N)=O)NC(=O)[C@H](C)NC(=O)[C@@H](NC(=O)[C@H](CCCCN)NC(=O)[C@H](CC(=O)O)NC(=O)[C@H](CC(C)C)NC(=O)C(C)(C)NC(=O)[C@@H](NC(=O)[C@H](CO)NC(=O)[C@H](Cc1ccc(O)cc1)NC(=O)[C@H](CC(=O)O)NC(=O)[C@H](CO)NC(=O)[C@@H](NC(=O)[C@H](Cc1ccccc1)NC(=O)[C@@H](NC(=O)CNC(=O)[C@H](CCC(=O)O)NC(=O)[C@H]1CCN(C(=O)C(C)(C)c2cc(F)cc(C#N)c2)C1)[C@@H](C)O)[C@@H](C)O)[C@@H](C)CC)[C@@H](C)CC)C(C)C)C(=O)N[C@@H](C)C(=O)NCC(=O)NCC(=O)N1CCC[C@H]1C(=O)N[C@@H](CO)C(=O)N[C@@H](CO)C(=O)NCC(=O)N[C@@H](C)C(=O)N1CCC[C@H]1C(=O)N1CCC[C@H]1C(=O)N1CCC[C@H]1C(=O)N[C@@H](CO)C(N)=O [Compound 195] ({Isobutyryl(2-(3-CN-5-F-Ph))}-[βPro(3S)]EGTFTSDYSI[Aib]LDKIAQK([AEEA-AEEA-γGlu-C20 diacid])AFVQWLIAGGPSSGAPPPS-NH2) | 100 to 1000 nM | 72% | > 1000 nM | 100 to 1000 nM | 51% | > 1000 nM |
| CC[C@H](C)[C@H](NC(=O)[C@H](CC(C)C)NC(=O)[C@H](Cc1c[nH]c2ccccc12)NC(=O)[C@H](CCC(N)=O)NC(=O)[C@@H](NC(=O)[C@H](Cc1ccccc1)NC(=O)[C@H](CCC(=O)O)NC(=O)[C@H](CCCCNC(=O)COCCOCCNC(=O)COCCOCCNC(=O)CC[C@H](NC(=O)CCCCCCCCCCCCCCCCCCC(=O)O)C(=O)O)NC(=O)[C@H](CCC(N)=O)NC(=O)[C@H](C)NC(=O)[C@@H](NC(=O)[C@H](CCCCN)NC(=O)[C@H](CC(=O)O)NC(=O)[C@H](CC(C)C)NC(=O)C(C)(C)NC(=O)[C@@H](NC(=O)[C@H](CO)NC(=O)[C@H](Cc1ccc(O)cc1)NC(=O)[C@H](CC(=O)O)NC(=O)[C@H](CO)NC(=O)[C@@H](NC(=O)[C@H](Cc1ccccc1)NC(=O)[C@@H](NC(=O)CNC(=O)[C@H](CCC(=O)O)NC(=O)CCNC(=O)C(C)(C)c1cc(F)cc(C#N)c1)[C@@H](C)O)[C@@H](C)O)[C@@H](C)CC)[C@@H](C)CC)C(C)C)C(=O)N[C@@H](C)C(=O)NCC(=O)NCC(=O)N1CCC[C@H]1C(=O)N[C@@H](CO)C(=O)N[C@@H](CO)C(=O)NCC(=O)N[C@@H](C)C(=O)N1CCC[C@H]1C(=O)N1CCC[C@H]1C(=O)N1CCC[C@H]1C(=O)N[C@@H](CO)C(N)=O [Compound 196] ({Isobutyryl(2-(3-CN-5-F-Ph))-βAla}-EGTFTSDYSI[Aib]LDKIAQK([AEEA-AEEA-γGlu-C20 diacid])EFVQWLIAGGPSSGAPPPS-NH2) | 1 to 10 nM | 100% | > 1000 nM | 0.1 to 1 nM | 95% | > 1000 nM |
| CC[C@H](C)[C@H](NC(=O)[C@H](CC(C)C)NC(=O)[C@H](Cc1c[nH]c2ccccc12)NC(=O)[C@H](CCC(N)=O)NC(=O)[C@@H](NC(=O)[C@H](Cc1ccccc1)NC(=O)[C@H](C)NC(=O)[C@H](CCCCNC(=O)COCCOCCNC(=O)COCCOCCNC(=O)CC[C@H](NC(=O)CCCCCCCCCCCCCCCCCCC(=O)O)C(=O)O)NC(=O)[C@H](CCC(N)=O)NC(=O)[C@H](C)NC(=O)[C@@H](NC(=O)[C@H](CCCCN)NC(=O)[C@H](CC(=O)O)NC(=O)[C@H](CC(C)C)NC(=O)C(C)(C)NC(=O)[C@@H](NC(=O)[C@H](CO)NC(=O)[C@H](Cc1ccc(O)cc1)NC(=O)[C@H](CC(=O)O)NC(=O)[C@H](CO)NC(=O)[C@@H](NC(=O)[C@H](Cc1ccccc1)NC(=O)[C@@H](NC(=O)CNC(=O)[C@H](CCC(=O)O)NC(=O)CCNC(=O)C(C)(C)C)[C@@H](C)O)[C@@H](C)O)[C@@H](C)CC)[C@@H](C)CC)C(C)C)C(=O)N[C@@H](C)C(=O)NCC(=O)NCC(=O)N1CCC[C@H]1C(=O)N[C@@H](CO)C(=O)N[C@@H](CO)C(=O)NCC(=O)N[C@@H](C)C(=O)N1CCC[C@H]1C(=O)N1CCC[C@H]1C(=O)N1CCC[C@H]1C(=O)N[C@@H](CO)C(N)=O [Compound 197] ({Piv-βAla}-EGTFTSDYSI[Aib]LDKIAQK([AEEA-AEEA-γGlu-C20 diacid])AFVQWLIAGGPSSGAPPPS-NH2) | 10 to 100 nM | 97% | > 1000 nM | 0.1 to 1 nM | 96% | > 1000 nM |
| CC[C@H](C)[C@H](NC(=O)[C@H](CC(C)C)NC(=O)[C@H](Cc1c[nH]c2ccccc12)NC(=O)[C@H](CCC(N)=O)NC(=O)[C@@H](NC(=O)[C@H](Cc1ccccc1)NC(=O)[C@H](C)NC(=O)[C@H](CCCCNC(=O)COCCOCCNC(=O)COCCOCCNC(=O)CC[C@H](NC(=O)CCCCCCCCCCCCCCCCCCC(=O)O)C(=O)O)NC(=O)[C@H](CCC(N)=O)NC(=O)[C@H](C)NC(=O)[C@@H](NC(=O)[C@H](CCCCN)NC(=O)[C@H](CC(=O)O)NC(=O)[C@H](CC(C)C)NC(=O)C(C)(C)NC(=O)[C@@H](NC(=O)[C@H](CO)NC(=O)[C@H](Cc1ccc(O)cc1)NC(=O)[C@H](CC(=O)O)NC(=O)[C@H](CO)NC(=O)[C@@H](NC(=O)[C@H](Cc1ccccc1)NC(=O)[C@@H](NC(=O)CNC(=O)[C@H](CCC(=O)O)NC(=O)CCNC(=O)C(C)(C)c1ccccc1F)[C@@H](C)O)[C@@H](C)O)[C@@H](C)CC)[C@@H](C)CC)C(C)C)C(=O)N[C@@H](C)C(=O)NCC(=O)NCC(=O)N1CCC[C@H]1C(=O)N[C@@H](CO)C(=O)N[C@@H](CO)C(=O)NCC(=O)N[C@@H](C)C(=O)N1CCC[C@H]1C(=O)N1CCC[C@H]1C(=O)N1CCC[C@H]1C(=O)N[C@@H](CO)C(N)=O [Compound 198] ({X61-βAla}-EGTFTSDYSI[Aib]LDKIAQK([AEEA-AEEA-γGlu-C20 diacid])AFVQWLIAGGPSSGAPPPS-NH2) | 1 to 10 nM | 102% | < 1000 nM | 0.1 to 1 nM | 99% | > 1000 nM |
